# Source: ChEMBL document CHEMBL1201862, “PubChem BioAssay data set” (2004)
#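 Briefly, cells in 96-well plates were exposed to five compound concentrations for 48 h, and endpoints were estimated by linear interpolation. At the GI50, growth is halved.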 Calls of active or inactive are those of the source. No stated cut-off is given here; in the data, active = GI50 up to about 1.1 µM and inactive = higher.
# Tests used:
# Experiment in all cases: inhibition of tumour cell growth, NCI panel, 48 h
# HL-60 = test system: HL-60
# RXF 393 = test system: RXF 393
# 786-0 = test system: 786-0
# OVCAR-5 = test system: OVCAR-5
# OVCAR-8 = test system: OVCAR-8
# LOX IMVI = test system: LOX IMVI
# SK-MEL-2 = test system: SK-MEL-2
# UACC-257 = test system: UACC-257
# OVCAR-3 = test system: OVCAR-3
# NCI-H226 = test system: NCI-H226
# MDA-N = test system: MDA-N
# MCF7 = test system: MCF7
# HCC 2998 = test system: HCC 2998
# A549 = test system: A549
# HCT-15 = test system: HCT-15
# NCI-H460 = test system: NCI-H460
# RPMI-8226 = test system: RPMI-8226
# M14 = test system: M14
# TK-10 = test system: TK-10
# Malme-3M = test system: Malme-3M
SMILES,GI50 (HL-60),GI50 (RXF 393),GI50 (786-0),GI50 (OVCAR-5),GI50 (OVCAR-8),GI50 (LOX IMVI),GI50 (SK-MEL-2),GI50 (UACC-257),GI50 (OVCAR-3),GI50 (NCI-H226),GI50 (MDA-N),GI50 (MCF7),GI50 (HCC 2998),GI50 (A549),GI50 (HCT-15) [µM],GI50 (NCI-H460),GI50 (RPMI-8226),GI50 (M14),GI50 (TK-10),GI50 (Malme-3M)
COc1cc2cc(C(=O)N3CC(CCl)c4ccccc43)[nH]c2c(OC)c1OC (stereo not given),16.3 µM (inactive),> 100 µM (inactive),97.5 µM (inactive),> 100 µM (inactive),81.8 µM (inactive),44.8 µM (inactive),62.5 µM (inactive),99.3 µM (inactive),> 100 µM (inactive),> 100 µM (inactive),40.5 µM (inactive),32.2 µM (inactive),17.2 µM (inactive),47.1 µM (inactive),24.1,17.5 µM (inactive),10.6 µM (inactive),62.5 µM (inactive),> 100 µM (inactive),36.5 µM (inactive)
C=C1CC2(OC1=O)c1ccccc1C=Cc1ccccc12,0.661 µM (active),3.19 µM (inactive),2.86 µM (inactive),9.31 µM (inactive),5.21 µM (inactive),1.38 µM (inactive),8.65 µM (inactive),5.14 µM (inactive),4.61 µM (inactive),5.08 µM (inactive),1.96 µM (inactive),2.3 µM (inactive),6.95 µM (inactive),9.42 µM (inactive),3.25,11.2 µM (inactive),1.42 µM (inactive),4.25 µM (inactive),5.86 µM (inactive),4.94 µM (inactive)
Cc1cccc2c1NC(=O)/C2=N\Nc1ccccc1[N+](=O)[O-],78.5 µM (inactive),3.66 µM (inactive),4.27 µM (inactive),26.2 µM (inactive),3.85 µM (inactive),3.64 µM (inactive),16.7 µM (inactive),13.8 µM (inactive),8.13 µM (inactive),10.3 µM (inactive),20.1 µM (inactive),4.6 µM (inactive),7.11 µM (inactive),4.49 µM (inactive),15.3,6.9 µM (inactive),10 µM (inactive),19.4 µM (inactive),6.84 µM (inactive),9.64 µM (inactive)
N/C(=N\O)NCCN1CCCCCCC1,> 100 µM (inactive),> 100 µM (inactive),> 100 µM (inactive),> 100 µM (inactive),42 µM (inactive),> 100 µM (inactive),> 100 µM (inactive),> 100 µM (inactive),> 100 µM (inactive),> 100 µM (inactive),> 100 µM (inactive),26.5 µM (inactive),> 100 µM (inactive),> 100 µM (inactive),> 100,> 100 µM (inactive),> 100 µM (inactive),> 100 µM (inactive),> 100 µM (inactive),> 100 µM (inactive)
N#C/C(=C\c1ccc2[nH]ccc2c1)C(=O)c1ccc(O)c(O)c1,27.5 µM (inactive),> 94 µM (inactive),43 µM (inactive),> 73.8 µM (inactive),> 100 µM (inactive),63.7 µM (inactive),> 78.9 µM (inactive),> 80.5 µM (inactive),9.42 µM (inactive),> 71.3 µM (inactive),> 100 µM (inactive),34.8 µM (inactive),66.7 µM (inactive),> 57.7 µM (inactive),51.4,37 µM (inactive),> 73.5 µM (inactive),> 63.1 µM (inactive),> 72.1 µM (inactive),> 65.8 µM (inactive)
C[C@]12C=CC(=O)C=C1CC[C@@H]1[C@@H]2C(=O)C[C@@]2(C)[C@H]1CC[C@]2(O)C(=O)CO [PREDNISONE],> 100 µM (inactive),> 100 µM (inactive),> 100 µM (inactive),> 100 µM (inactive),> 100 µM (inactive),> 100 µM (inactive),> 100 µM (inactive),> 100 µM (inactive),> 100 µM (inactive),> 100 µM (inactive),> 100 µM (inactive),> 100 µM (inactive),> 100 µM (inactive),> 100 µM (inactive),> 100,> 100 µM (inactive),> 100 µM (inactive),> 100 µM (inactive),> 100 µM (inactive),> 100 µM (inactive)
